Measurements published in patent US20230150924A1, “NOVEL COMPOUND HAVING CANCER METASTASIS INHIBITORY ACTIVITY, PREPARATION METHOD THEREFOR, AND PHARMACEUTICAL COMPOSITION FOR INHIBITING CANCER METASTASIS AND INVASION OR TREATING COLORECTAL CANCER, COMPRISING COMPOUND” (CELLGENTEK CO., LTD., priority 2019, published 2023).
Like-named read-outs stand apart in the source and are kept apart here.

Columns and labels:
KAI1 promoter = KAI1 promoter luciferase reporter assay in transfected Caco2 cells; format: cell-based, human; details: Homo sapiens, Caco-2, 16 h, read-out: Relative KAI promoter activity
[1] = system: invasion of colorectal cancer cells; assay: In vivo relative invation (invasion; EV and KITENIN controls, no method described); details: relative to EV (=1); KIT = KITENIN
[2] = 1 μM compound, 16 hours, transfected Caco2 cells, luciferase activity relative to DMSO control (=1)

Cc1cccc(C(=O)NCC(=O)c2ccc(Cl)cc2)c1 [Example 53, N-(2-(4-chlorophenyl)-2-oxoethyl)-3-methylbenzamide]
fold induction at 1 µM (KAI1 promoter; [2]): 2.02
In vivo relative invation [1]: 0.9411

CN(C)c1ccc(C(=O)CNC(=O)c2ccco2)cc1 [Example 92, N-(2-(4-(dimethylamino)phenyl)-2-oxoethyl)furan-2-carboxamide]
fold induction at 1 µM (KAI1 promoter; [2]): 2.29
In vivo relative invation [1]: 1.064

O=C(CNS(=O)(=O)c1ccccc1)c1ccc(N2CCOCC2)cc1 [Example 148, N-(2-(4-morpholinophenyl)-2-oxoethyl)benzenesulfonamide]
fold induction at 1 µM (KAI1 promoter; [2]): 1.44
In vivo relative invation [1]: 1.844

CN(C)Cc1cccc(C(=O)NCC(=O)c2ccccc2)c1 [Example 231, 3-((dimethylamino)methyl)-N-(2-oxo-2-phenylethyl)benzamide]
fold induction at 1 µM (KAI1 promoter; [2]): 1.56
In vivo relative invation [1]: 1.122

O=C(CNC(=O)C1CCC1)c1ccccc1 [Example 17, N-(2-oxo-2-phenylethyl)cyclobutanecarboxamide]
fold induction at 1 µM (KAI1 promoter; [2]): 0.98
In vivo relative invation [1]: 0.9288

CCC(=O)NCC(=O)c1ccccc1 [Example 14, N-(2-oxo-2-phenylethyl)propionamide]
fold induction at 1 µM (KAI1 promoter; [2]): 1.02
In vivo relative invation [1]: 0.9106

COc1cccc(C(=O)CNC(=O)c2cccc(CN3CCN(CCO)CC3)c2)c1 [Example 292, 3-((4-(2-hydroxyethyl)piperazin-1-yl)methyl)-N-(2-(3-methoxyphenyl)-2-oxoethyl)benzamide]
fold induction at 1 µM (KAI1 promoter; [2]): 1.45
In vivo relative invation [1]: 1.238

CN(C)c1ccc(C(=O)CNC(=O)c2ccc(F)c(F)c2)cc1 [Example 116, N-(2-(4-(dimethylamino)phenyl)-2-oxoethyl)-3,4ifluorobenzamide]
fold induction at 1 µM (KAI1 promoter; [2]): 2.15
In vivo relative invation [1]: 1.164

O=C(COc1ccccc1C(=O)NCC(=O)c1ccccc1)Nc1cccc(O)c1 [Example 223, 2-(2-((3-hydroxyphenyl)amino)-2-oxoethoxy)-N-(2-oxo-2-phenylethyl)benzamide]
fold induction at 1 µM (KAI1 promoter; [2]): 1.1
In vivo relative invation [1]: 1.195

CC(C)(C)C(=O)N1CCC(Oc2ccccc2C(=O)NCC(=O)c2ccccc2)CC1 [Example 179, N-(2-oxo-2-phenylethyl)-2-((1-pivaloylpiperidin-4-yl)oxy)benzamide]
fold induction at 1 µM (KAI1 promoter; [2]): 0.97
In vivo relative invation [1]: 1.081

O=C(CNC(=O)c1cccc(CN2CCOCC2)c1)c1ccccc1 [Example 252, 3-(morpholinomethyl)-N-(2-oxo-2-phenylethyl)benzamide]
fold induction at 1 µM (KAI1 promoter; [2]): 1.56
In vivo relative invation [1]: 1.165

CC(C)(C)CC(=O)NCC(=O)c1ccc(Cl)cc1 [Example 60, N-(2-(4-chlorophenyl)-2-oxoethyl)-3,3-dimethylbutanamide]
fold induction at 1 µM (KAI1 promoter; [2]): 0.81
In vivo relative invation [1]: 0.9713

CN1CCN(Cc2cccc(C(=O)NCC(=O)c3ccccc3)c2)CC1 [Example 253, 3-((4-methylpiperazin-1-yl)methyl)-N-(2-oxo-2-phenylethyl)benzamide]
fold induction at 1 µM (KAI1 promoter; [2]): 0.963
In vivo relative invation [1]: 1.421

CC(Oc1ccccc1)C(=O)N1CCC(Oc2ccccc2C(=O)NCC(=O)c2ccccc2)CC1 (centres unmarked) [Example 152, N-(2-oxo-2-phenylethyl)-2-((1-(2-phenoxypropanoyl)piperidin-4-yl)oxy)benzamide]
fold induction at 1 µM (KAI1 promoter; [2]): 1.08
In vivo relative invation [1]: 1.16

O=C(CNC(=O)c1ccccc1C(F)(F)F)c1ccccc1 [Example 30, N-(2-oxo-2-phenylethyl)-2-(trifluoromethyl)benzamide]
fold induction at 1 µM (KAI1 promoter; [2]): 1.41
In vivo relative invation [1]: 0.7631

CN(C)c1ccc(C(=O)CNS(=O)(=O)c2ccccc2)cc1 [Example 109, N-(2-(4-(dimethylamino)phenyl)-2-oxoethyl)benzenesulfonamide]
fold induction at 1 µM (KAI1 promoter; [2]): 2.89
In vivo relative invation [1]: 0.9054

COCC(=O)NCC(=O)c1ccc(Cl)cc1 [Example 65, N-(2-(4-chlorophenyl)-2-oxoethyl)-2-methoxyacetamide]
fold induction at 1 µM (KAI1 promoter; [2]): 0.84
In vivo relative invation [1]: 1.191

COCc1ccccc1C(=O)NCC(=O)c1ccc(Cl)cc1 [Example 59, N-(2-(4-chlorophenyl)-2-oxoethyl)-2-(methoxymethyl)benzamide]
fold induction at 1 µM (KAI1 promoter; [2]): 1.56
In vivo relative invation [1]: 1.007

O=C(CNC(=O)c1cccc(C(F)(F)F)c1)c1ccccc1 [Example 31, N-(2-oxo-2-phenylethyl)-3-(trifluoromethyl)benzamide]
fold induction at 1 µM (KAI1 promoter; [2]): 1.18
In vivo relative invation [1]: 0.8211

COc1ccc(C(=O)NCC(=O)c2ccccc2)cc1 [Example 12, 4-methoxy-N-(2-oxo-2-phenylethyl)benzamide]
fold induction at 1 µM (KAI1 promoter; [2]): 1.75
In vivo relative invation [1]: 1.357

C/C=C/C(=O)NCC(=O)c1ccc(Cl)cc1 [Example 48, (E)-N-(2-(4-chlorophenyl)-2-oxoethyl)but-2-enamide]
fold induction at 1 µM (KAI1 promoter; [2]): 0.85
In vivo relative invation [1]: 1.19

Cc1ccccc1NC(=O)COc1ccccc1C(=O)NCC(=O)c1ccccc1 [Example 202, 2-(2-oxo-2-(o-toylamino)ethoxy)-N-(2-oxo-2-phenylethyl)benzamide]
fold induction at 1 µM (KAI1 promoter; [2]): 1.31
In vivo relative invation [1]: 1.138

O=C(CNC(=O)c1ccccc1OC(F)(F)F)c1ccccc1 [Example 41, N-(2-oxo-2-phenylethyl)-2-(trifluoromethoxy)benzamide]
fold induction at 1 µM (KAI1 promoter; [2]): 1.19
In vivo relative invation [1]: 0.7565

COc1ccc(CNC(=O)COc2ccccc2C(=O)NCC(=O)c2ccccc2)cc1OC [Example 215, 2-(2-((3,4-dimethoxybenzyl)amino)-2-oxoethoxy)-N-(2-oxo-2-phenylethyl)benzamide]
fold induction at 1 µM (KAI1 promoter; [2]): 0.975
In vivo relative invation [1]: 1.304

O=C(CNC(=O)c1ccc(F)cc1)c1ccccc1 [Example 4, 4-fluoro-N-(2-oxo-2-phenylethyl)benzamide]
fold induction at 1 µM (KAI1 promoter): 1.88
In vivo relative invation [1]: 1.084

O=C(CNC(=O)c1ccccc1OC1CCN(C(=O)c2ccc(Cl)cc2)CC1)c1ccccc1 [Example 151, 2-((1-(4-chlorobenzoyl)piperidin-4-yl)oxy)-N-(2-oxo-2-phenylethyl)benzamide]
fold induction at 1 µM (KAI1 promoter; [2]): 1.05
In vivo relative invation [1]: 1.212

CCCNC(=O)COc1ccccc1C(=O)NCC(=O)c1ccccc1 [Example 228]
fold induction at 1 µM (KAI1 promoter; [2]): 0.982
In vivo relative invation [1]: 1.278

COc1cc(OC)cc(C(=O)NCC(=O)c2ccc(Cl)cc2)c1 [Example 85, N-(2-(4-chlorophenyl)-2-oxoethyl)-3,5imethoxybenzamide]
fold induction at 1 µM (KAI1 promoter; [2]): 0.96
In vivo relative invation [1]: 1.206

CN(C)c1ccc(C(=O)CNS(=O)(=O)Cc2ccccc2)cc1 [Example 110, N-(2-(4-(dimethylamino)phenyl)-2-oxoethyl)-1-phenylmethanesulfonamide]
fold induction at 1 µM (KAI1 promoter; [2]): 1.49
In vivo relative invation [1]: 1.009

O=C(CNC(=O)c1ccccc1OC1CCN(C(=O)N2CCOCC2)CC1)c1ccccc1 [Example 171, 2-((1-(morpholine-4-carbonyl)piperidin-4-yl)oxy)-N-(2-oxo-2-phenylethyl)benzamide]
fold induction at 1 µM (KAI1 promoter; [2]): 1.07
In vivo relative invation [1]: 1.191

CN(C)c1ccc(C(=O)CNC(=O)c2cccc(Cl)c2Cl)cc1 [Example 118, 2,3-dichloro-N-(2-(4-(dimethylamino)phenyl)-2-oxoethyl)benzamide]
fold induction at 1 µM (KAI1 promoter; [2]): 1.74
In vivo relative invation [1]: 0.7681
